Assay results as given in PubChem BioAssay AID226 (DTP/NCI, 2004).
Where “and” joins values, the source holds several entries; their conditions need not be identical. Equal values may be shown once. Toxic doses and inconclusive results are not listed.

Test system: B6C3F1 mice, intracerebral ependymoblastoma, median survival T/C
Experiment: NCI In Vivo Anticancer Drug Screen. Data for tumor model Ependymoblastoma (intracerebral) in B6C3F1 mice
Conditions: endpoint: median survival time, higher = longer survival
Procedure: The antitumor activity of compounds was measured in mice bearing transplantable tumors. Survival or tumor size were measured and the results are expressed as the measurement made in the treated group (T) divided by the measurement made in the vehicle treated control group (C). The tumor model used in this assay is Ependymoblastoma (intracerebral) in B6C3F1 mice

[1] = dose: 4.0 mg/kg/injection, schedule: Q01DX005 (ip), vehicle: water
[2] = dose: 4.0 mg/kg/injection, schedule: Q01DX005 (ip), vehicle: Klucel (hydroxypropylcellulose) (HPC)
[3] = dose: 32.0 mg/kg/injection, schedule: Q01DX005 (ip), vehicle: saline
[4] = dose: 64.0 mg/kg/injection, schedule: Q01DX005 (ip), vehicle: saline
[5] = dose: 128.0 mg/kg/injection, schedule: Q01DX005 (ip), vehicle: saline
[6] = dose: 256.0 mg/kg/injection, schedule: Q01DX005 (ip), vehicle: saline
[7] = dose: 0.25 mg/kg/injection, schedule: Q01DX005 (ip), vehicle: saline
[8] = dose: 0.5 mg/kg/injection, schedule: Q01DX005 (ip), vehicle: saline
[9] = dose: 1.0 mg/kg/injection, schedule: Q01DX005 (ip), vehicle: saline
[10] = dose: 2.0 mg/kg/injection, schedule: Q01DX005 (ip), vehicle: saline

## N=[N+]=CC(=O)CCC(NC(=O)C(CCC(=O)C=[N+]=N)NC(=O)CCC(N)C(=O)O)C(=O)O (stereo not drawn)
dose: 0.05 mg/kg/injection, schedule: Q01DX005 (ip), vehicle: Klucel (hydroxypropylcellulose) (HPC)
  T/C: 100 % of control and 106 % of control
dose: 0.1 mg/kg/injection, schedule: Q01DX005 (ip), vehicle: Klucel (hydroxypropylcellulose) (HPC)
  T/C: 90 % of control and 107 % of control
dose: 0.2 mg/kg/injection, schedule: Q01DX005 (ip), vehicle: Klucel (hydroxypropylcellulose) (HPC)
  T/C: 99 % of control and 108 % of control
dose: 0.4 mg/kg/injection, schedule: Q01DX005 (ip), vehicle: Klucel (hydroxypropylcellulose) (HPC)
  T/C: 97 % of control and 114 % of control

## COC(=O)c1cccc(N=NN(C)C)c1
dose: 8.0 mg/kg/injection, schedule: Q01DX005 (ip), vehicle: saline + alcohol
  T/C: 98 % of control
dose: 16.0 mg/kg/injection, schedule: Q01DX005 (ip), vehicle: saline + alcohol
  T/C: 108 % of control
dose: 32.0 mg/kg/injection, schedule: Q01DX005 (ip), vehicle: saline + alcohol
  T/C: 123 % of control
dose: 100.0 mg/kg/injection, schedule: Q01DX005 (ip), vehicle: saline with Tween-80
  T/C: 114 % of control
dose: 128.0 mg/kg/injection, schedule: Q01DX005 (ip), vehicle: saline + alcohol
  T/C: 162 % of control

## COc1ccc2c(c1OC(C)=O)-c1cc(OC(C)=O)cc3c1C(C2)N(C(=O)CBr)CC3 (stereo not drawn)
dose: 25.0 mg/kg/injection, schedule: Q01DX005 (ip), vehicle: saline
  T/C: 96 % of control
dose: 50.0 mg/kg/injection, schedule: Q01DX005 (ip), vehicle: saline
  T/C: 91 % of control

## NS(=O)(=O)c1cc2c(cc1Cl)NC=NS2(=O)=O
dose: 37.5 mg/kg/injection, schedule: Q01DX005 (ip), vehicle: Klucel (hydroxypropylcellulose) (HPC)
  T/C: 109 % of control
dose: 75.0 mg/kg/injection, schedule: Q01DX005 (ip), vehicle: Klucel (hydroxypropylcellulose) (HPC)
  T/C: 96 % of control
dose: 150.0 mg/kg/injection, schedule: Q01DX005 (ip), vehicle: Klucel (hydroxypropylcellulose) (HPC)
  T/C: 90 % of control
dose: 300.0 mg/kg/injection, schedule: Q01DX005 (ip), vehicle: Klucel (hydroxypropylcellulose) (HPC)
  T/C: 107 % of control
dose: 600.0 mg/kg/injection, schedule: Q01DX005 (ip), vehicle: Klucel (hydroxypropylcellulose) (HPC)
  T/C: 102 % of control

## CCOC(OCC)C(=O)OCC(=O)[C@]1(O)Cc2c(O)c3c(c(O)c2[C@@H](OC2CC(N)C(O)C(C)O2)C1)C(=O)c1c(OC)cccc1C3=O (stereo partly drawn)
dose: 0.12 mg/kg/injection, schedule: Q01DX005 (ip), vehicle: water
  T/C: 103 % of control
dose: 0.25 mg/kg/injection, schedule: Q01DX005 (ip), vehicle: water
  T/C: 102 % of control and 113 % of control
dose: 0.5 mg/kg/injection, schedule: Q01DX005 (ip), vehicle: water
  T/C: 101 % of control and 105 % of control
dose: 1.0 mg/kg/injection, schedule: Q01DX005 (ip), vehicle: water
  T/C: 98 % of control and 109 % of control
dose: 2.0 mg/kg/injection, schedule: Q01DX005 (ip), vehicle: water
  T/C: 101 % of control and 103 % of control
[1]
  T/C: 109 % of control

## S=P(N1CC1)(N1CC1)N1CC1.[Cl-].[Cl-].[NH2-].[NH2-].[Pt+4]
dose: 3.0 mg/kg/injection, schedule: Q01DX005 (ip), vehicle: dextrose
  T/C: 122 % of control
dose: 6.0 mg/kg/injection, schedule: Q01DX005 (ip), vehicle: dextrose
  T/C: 155 % of control

## C[C@@H](CN1CC(=O)NC(=O)C1)N1CC(=O)NC(=O)C1
[2]
  T/C: 112 % of control and 120 % of control
dose: 4.0 mg/kg/injection, schedule: Q01DX005 (ip), vehicle: saline with Tween-80
  T/C: 116 % of control and 117 % of control
[1]
  T/C: 102 % of control
dose: 8.0 mg/kg/injection, schedule: Q01DX005 (ip), vehicle: saline with Tween-80
  T/C: 108 % of control
dose: 16.0 mg/kg/injection, schedule: Q01DX005 (ip), vehicle: Klucel (hydroxypropylcellulose) (HPC)
  T/C: 108 % of control and 111 % of control
dose: 16.0 mg/kg/injection, schedule: Q01DX005 (ip), vehicle: saline with Tween-80
  T/C: 114 % of control and 118 % of control
dose: 16.0 mg/kg/injection, schedule: Q01DX005 (ip), vehicle: water
  T/C: 105 % of control
[3]
  T/C: 102 % of control and 114 % of control
dose: 32.0 mg/kg/injection, schedule: Q01DX005 (oral), vehicle: saline
  T/C: 109 % of control
dose: 64.0 mg/kg/injection, schedule: Q01DX005 (ip), vehicle: Klucel (hydroxypropylcellulose) (HPC)
  T/C: 107 % of control and 115 % of control
dose: 64.0 mg/kg/injection, schedule: Q01DX005 (ip), vehicle: saline with Tween-80
  T/C: 114 % of control
[4]
  T/C: 123 % of control
dose: 64.0 mg/kg/injection, schedule: Q01DX005 (ip), vehicle: water
  T/C: 108 % of control
[5]
  T/C: 120 % of control
dose: 128.0 mg/kg/injection, schedule: Q#A X002 (ip), vehicle: saline
  T/C: 103 % of control
dose: 256.0 mg/kg/injection, schedule: Q01DX001 (ip), vehicle: saline
  T/C: 107 % of control and 111 % of control and 113 % of control
dose: 256.0 mg/kg/injection, schedule: Q01DX001 (oral), vehicle: saline
  T/C: 109 % of control and 123 % of control and 124 % of control
dose: 256.0 mg/kg/injection, schedule: Q01DX005 (ip), vehicle: Klucel (hydroxypropylcellulose) (HPC)
  T/C: 112 % of control and 122 % of control
[6]
  T/C: 120 % of control and 122 % of control
dose: 256.0 mg/kg/injection, schedule: Q#A X002 (ip), vehicle: saline
  T/C: 113 % of control
dose: 512.0 mg/kg/injection, schedule: Q01DX001 (ip), vehicle: saline
  T/C: 109 % of control and 118 % of control
dose: 512.0 mg/kg/injection, schedule: Q01DX001 (oral), vehicle: saline
  T/C: 119 % of control and 121 % of control
dose: 512.0 mg/kg/injection, schedule: Q#A X002 (ip), vehicle: saline
  T/C: 121 % of control
dose: 1024.0 mg/kg/injection, schedule: Q01DX001 (ip), vehicle: saline
  T/C: 114 % of control and 121 % of control
dose: 1024.0 mg/kg/injection, schedule: Q01DX001 (oral), vehicle: saline
  T/C: 119 % of control
dose: 1024.0 mg/kg/injection, schedule: Q#A X002 (ip), vehicle: saline
  T/C: 121 % of control
dose: 2048.0 mg/kg/injection, schedule: Q01DX001 (oral), vehicle: saline
  T/C: 102 % of control and 121 % of control

## O=C1C(NCCO)=C(N2CC2)C(=O)C(NCCO)=C1N1CC1
dose: 0.06 mg/kg/injection, schedule: Q01DX005 (ip), vehicle: saline
  T/C: 112 % of control
dose: 0.12 mg/kg/injection, schedule: Q01DX005 (ip), vehicle: saline
  T/C: 113 % of control
dose: 0.19 mg/kg/injection, schedule: Q01DX005 (ip), vehicle: saline
  T/C: 96 % of control
[7]
  T/C: 91 % of control and 120 % of control
dose: 0.38 mg/kg/injection, schedule: Q01DX005 (ip), vehicle: saline
  T/C: 100 % of control
[8]
  T/C: 106 % of control
dose: 0.75 mg/kg/injection, schedule: Q01DX005 (ip), vehicle: saline
  T/C: 117 % of control
[9]
  T/C: 114 % of control
dose: 1.5 mg/kg/injection, schedule: Q01DX005 (ip), vehicle: saline
  T/C: 120 % of control
[10]
  T/C: 110 % of control

## COc1ccc2c(c1O)-c1cccc3c1[C@@H](C2)N(CCCl)CC3
[7]
  T/C: 105 % of control
[8]
  T/C: 100 % of control
[9]
  T/C: 96 % of control
[10]
  T/C: 99 % of control and 87 % of control
[2]
  T/C: 98 % of control
dose: 4.0 mg/kg/injection, schedule: Q01DX005 (ip), vehicle: saline
  T/C: 104 % of control
dose: 8.0 mg/kg/injection, schedule: Q01DX005 (ip), vehicle: Klucel (hydroxypropylcellulose) (HPC)
  T/C: 98 % of control
dose: 8.0 mg/kg/injection, schedule: Q01DX005 (ip), vehicle: saline
  T/C: 93 % of control
dose: 16.0 mg/kg/injection, schedule: Q01DX005 (ip), vehicle: saline
  T/C: 88 % of control
[3]
  T/C: 86 % of control

## COC1C(CO)OC(n2cnc3c(=S)nc(N)[nH]c32)C1O (stereo not drawn)
dose: 12.5 mg/kg/injection, schedule: Q01DX005 (ip), vehicle: Klucel (hydroxypropylcellulose) (HPC)
  T/C: 104 % of control
dose: 25.0 mg/kg/injection, schedule: Q01DX005 (ip), vehicle: Klucel (hydroxypropylcellulose) (HPC)
  T/C: 109 % of control
dose: 50.0 mg/kg/injection, schedule: Q01DX005 (ip), vehicle: Klucel (hydroxypropylcellulose) (HPC)
  T/C: 119 % of control
dose: 100.0 mg/kg/injection, schedule: Q01DX005 (ip), vehicle: Klucel (hydroxypropylcellulose) (HPC)
  T/C: 106 % of control

## CCC(=O)NC1=C(N2CC2C)C(=O)C(NC(=O)CC)=C(N2CC2C)C1=O (stereo not drawn)
dose: 0.78 mg/kg/injection, schedule: Q01DX009 (ip), vehicle: Klucel (hydroxypropylcellulose) (HPC)
  T/C: 105 % of control
dose: 1.56 mg/kg/injection, schedule: Q01DX009 (ip), vehicle: Klucel (hydroxypropylcellulose) (HPC)
  T/C: 110 % of control
dose: 3.12 mg/kg/injection, schedule: Q01DX009 (ip), vehicle: Klucel (hydroxypropylcellulose) (HPC)
  T/C: 106 % of control
dose: 6.25 mg/kg/injection, schedule: Q01DX009 (ip), vehicle: Klucel (hydroxypropylcellulose) (HPC)
  T/C: 105 % of control

## CN(CCO)/N=N/c1nc[nH]c1C(N)=O
[3]
  T/C: 116 % of control
[4]
  T/C: 109 % of control and 112 % of control
[5]
  T/C: 114 % of control
[6]
  T/C: 124 % of control
